1 compound from patent publication US4421767A, “Compounds and methods for treating depression” (priority 1982, dated 1983) can be followed below.

SMILES strings stand for the structures.

The subject of this data set is heart rate and blood pressure responses to tyramine. The data set can be described thus: Potentiation of tyramine response after 5 days oral MAO inhibitor in rats (Table I). In kind it is in vivo, rat. To be noted: 5 days, tyramine i.d. On the procedure: (A) Rats were gavaged daily for 5 days with saline or 2-amino-4-fluoro-3-(3'-hydroxyphenyl)-3-butenoic acid (AFHBA) at dosages of 15.6, 62.5, 250, or 1000 μg/kg or with clorgyline at dosages of 1250 or 5000 μg/kg. On the 6th day, rats were anaesthetized and heart rate and blood pressure responses to tyramine (0.3-50 mg/kg) administered intraduodenally (i.d.) were determined. Additionally, monoamines and MAO activity were determined in various tissues including brain.

As for `NC(C(=O)O)C(=CF)c1cccc(O)c1` (racemic) [AFHBA, 2-Amino-4-fluoro-3-(3'-hydroxyphenyl)-3-butenoic acid], the “Tyramine Potentiation” value runs as follows: (AFHBA 15.6 μg/kg daily p.o., some potentiation at lowest doses of tyramine (footnote c)) 1.0; (AFHBA 62.5 μg/kg daily p.o.) 4.0; (AFHBA 250 μg/kg daily p.o.) 7.1; (AFHBA 1000 μg/kg daily p.o.) 7.7.
